Results on one compound are retold here after patent US20090209535A1, “6-ETHER/THIOETHER-PURINES AS TOPOISOMERASE II CATALYTIC INHIBITORS AND THEIR USE IN THERAPY” (TOPOTARGET A/S, priority 2005, published 2009).

Series [1] addresses T1, human topoisomerase II α-DNA covalent complexes (Homo sapiens, UniProt P11388).
T1 construct: made in house; host or cells: yeast (over-expressing yeast cells)
Briefly: Topoisomerase II DNA cleavage assay (phenol-chloroform extraction, Δcpm). It counts as biochemical. The settings on record: 1000 μM.
Text: In order to determine the ability of NSC 35866 to increase the level of topoisomerase II-DNA covalent complexes on DNA in vitro, a new and highly sensitive topoisomerase II DNA cleavage assay having a numeric readout was developed. […] The DNA substrate is a 950 bp linear ^3H-labelled DNA synthesized by PCR in the presence of ^3H-dATP. […] The DNA fragment was isolated from unincorporated dNTPs by ethanol precipitation at 0.3 M NaCl, followed by washing in 70% ethanol. The specific activity of the fragment was typically 10,000-20,000 cpm/μg. Before starting the assay, a drug dilution series comprising 10× the final drug concentration was made. Reaction mixtures containing 100 ng of the 950 bp linear ^3H-labelled DNA, 300 ng human topoisomerase II q, topoisomerase II cleavage buffer (10 mM TRIS-HCL pH 7.9, 50 mM NaCl, 50 mM KCl, 5 mM MgCl2, 1 mM EDTA, 15 μg/mL BSA and 1 mM Na2ATP), and increasing concentrations of drug in 50 μL reaction volumes were then incubated 10 minutes at 37° C. A “no topoisomerase II” sample and a “no drug” sample were always included as controls. Next, the cleavable complex was trapped by adding 5 μL 10% SDS. After vigorous vortexing, 45 uL TE buffer, pH=8.0, was added to obtain 100 μL per sample. 100 μL phenol:chloroform:isoamyl alcohol (25:24:1) equilibrated with TE buffer, pH=8.0, was then added, and the samples were vortexed vigorously for 30 seconds. Finally, the samples were centrifuged at 20,000 g for 2 minutes and 90 μL of the upper water phase was used for scintillation counting using 15 mL of Ultima gold scintillation fluid (Packard).
In order to establish whether NSC 35866 inhibits the DNA strand passage reaction of topoisomerase II by stabilising a covalent reaction intermediate, a new and highly sensitive topoisomerase II DNA cleavage assay having a numeric read-out was developed. This assay is based on the fact that after extraction with phenol-chloroform, protein-bound DNA is removed from the water phase, while naked DNA remains in the water phase. […] Consequently, in reactions containing topoisomerase II and linear DNA, the ability of compounds to remove DNA from the water phase after phenol-chloroform extraction should reflect their potency as topoisomerase II poisons. This assay was first validated by incubating 100 ng of a linear 950 bp PCR DNA fragment with 300 ng of purified human topoisomerase II α in the presence of increasing concentrations of the etoposide and m-AMSA. The DNA fragment was ^3H labelled by performing PCR in the presence of ^3H-dATP. In these experiments, a “no topoisomerase II” sample was always included to determine the level of radioactivity (DNA) retained in the water-phase when no enzyme is present. Within each experiment, the CPM values retained in the water phase in the topoisomerase II reactions were then subtracted from this background CPM value to give Δcpm. Consequently, the Δcpm values of samples with no drug added represent the background level of topoisomerase II-DNA covalent complexes present in the reaction mixture under the assay conditions, while the Δcpm levels in the presence of drugs represent the levels of poison-induced topoisomerase II-DNA covalent complexes.

Series [2] has as its target T2, topoisomerase II α (Homo sapiens, UniProt P11388). Briefly: Topoisomerase II ATPase assay (coupled, NADH oxidation). It counts as biochemical. Details: made in house; host or cells: yeast (over-expressing yeast cells). On the procedure: The reaction was monitored spectrophotometrically at 340 nm using a Bio-Tek EL808 Ultra Micro plate Reader connected to a computer with KC4 Software installed (Bio-Tek Instruments, U.S.). The change in absorbance was related to ADP production using A340^1M=6220 cm^−1. […] The rate of ATP hydrolysis, V, was determined from the linear part of the curve.
The steady-state rate of ATP hydrolysis was determined using a coupled ATPase assay as described herein. […] Error bars represent SEM of two independent experiments each performed in duplicate.
The steady-state rate of ATP hydrolysis was determined as described in for FIG. 3 and as described herein. In this analysis, the rate of ATP hydrolysis in the absence of drug was set to one in all experiments. Error bars represent SEM of 2 or 3 independent experiments each preformed in duplicate.

The next series relates to human SCLC NCI-H69 cells. Briefly: Protection from etoposide-induced cytotoxicity, NCI-H69. In kind it is cell-based.
The target in series [3] is T2, topoisomerase II α. The series is described as follows: Topoisomerase II retention on DNA/streptavidin beads (salt-stable complex). It counts as biochemical. Details: made in house; host or cells: yeast (over-expressing yeast cells). On the procedure:
An assay capable of measuring non-covalent complexes of topoisomerase II on closed circular DNA was performed as described in Morris et al., 2000, with modifications. When performing six reactions, 60 μL M280 streptavidin coated bead (Dynal A/S, Oslo, Norway) slurry corresponding to 600 μg beads was transferred to a 1.5 mL tube that was then placed in a Dynal MPC-E (magnetic particle concentrator) rack (Dynal A/S, Oslo, Norway) for 1 to 2 minutes until the beads had settled on the tube wall. The beads were then washed twice in the DNA binding solution supplied with the kilobase binding kit (Dynal A/S, Oslo, Norway) by repeating this step. Finally, the beads were re-suspended in 250 μL DNA binding solution. A preparation of biotin labelled plasmid DNA containing a 5-kb super coiled circular DNA molecule carrying 8 successive PNA (Peptide Nucleic Acid) linked biotin labels at one known position (pGeneGrip biotin blank vector, Gene Therapy Systems Inc., San Diego, Calif., USA) was made by mixing 220 μL distilled water and 30 μL biotinylated DNA. After mixing the beads and the DNA preparation, the sample was left overnight at room temperature under gentle agitation to assure optimal formation of the DynaBeads DNA complex. Next, the complex was washed twice in 480 μL wash buffer (10 mM TRIS-HCL, pH 7.5, 2 M NaCl, 1 mM EDTA), once in distilled water, and once in topoisomerase reaction buffer (10 mM TRIS-HCl, pH 7.9, 50 mM NaCl, 50 mM KCl, 5 mM MgCl2, 1 mM EDTA, […] BSA). Then, the beads were re-suspended in 600 μL topoisomerase II buffer and divided into 6 tubes. 100 μL reactions containing plasmid DNA coated DynaBeads, topoisomerase II buffer, 2 μg purified human topoisomerase […] and drugs were incubated for 30 minutes at 37° C. When included, ATP was present at 1 mM. […]
FIG. 7 describes the results of studies of the ability of NSC 35866 to stabilise a salt-stable complex of human topoisomerase II α on covalently closed circular DNA. Retention of salt-stable (to 2 M KCl) complexes of human topoisomerase II α on circular DNA attached to magnetic beads via biotin-streptavidin linkage was determined by eluting retained protein by adding running buffer containing 4% SDS followed by heating to 100° C. for 10 minutes. The amount of human topoisomerase II α protein retained was then determined by running the samples on 7% SDS-PAGE gels followed by straining with GelCode Blue Strain Reagent (Pierce, Rockford, Ill., USA): Lane 1, no drug; Lane 2, 200 μM ICRF-187; Lane 3, 30 μM NSC 35866; Lane 4, 100 μM NSC 35866; Lane 5, 300 μM NSC 35866; Lane 6, 1000 μM NSC 35866; Lane K, 2 μg human topoisomerase II α. […]

Where “and” joins values, the source holds several entries; their conditions need not be identical. Identical values can stand only once. Like-named read-outs stand apart in the source and are kept apart here.

T2 sequence (P11388 whole entry): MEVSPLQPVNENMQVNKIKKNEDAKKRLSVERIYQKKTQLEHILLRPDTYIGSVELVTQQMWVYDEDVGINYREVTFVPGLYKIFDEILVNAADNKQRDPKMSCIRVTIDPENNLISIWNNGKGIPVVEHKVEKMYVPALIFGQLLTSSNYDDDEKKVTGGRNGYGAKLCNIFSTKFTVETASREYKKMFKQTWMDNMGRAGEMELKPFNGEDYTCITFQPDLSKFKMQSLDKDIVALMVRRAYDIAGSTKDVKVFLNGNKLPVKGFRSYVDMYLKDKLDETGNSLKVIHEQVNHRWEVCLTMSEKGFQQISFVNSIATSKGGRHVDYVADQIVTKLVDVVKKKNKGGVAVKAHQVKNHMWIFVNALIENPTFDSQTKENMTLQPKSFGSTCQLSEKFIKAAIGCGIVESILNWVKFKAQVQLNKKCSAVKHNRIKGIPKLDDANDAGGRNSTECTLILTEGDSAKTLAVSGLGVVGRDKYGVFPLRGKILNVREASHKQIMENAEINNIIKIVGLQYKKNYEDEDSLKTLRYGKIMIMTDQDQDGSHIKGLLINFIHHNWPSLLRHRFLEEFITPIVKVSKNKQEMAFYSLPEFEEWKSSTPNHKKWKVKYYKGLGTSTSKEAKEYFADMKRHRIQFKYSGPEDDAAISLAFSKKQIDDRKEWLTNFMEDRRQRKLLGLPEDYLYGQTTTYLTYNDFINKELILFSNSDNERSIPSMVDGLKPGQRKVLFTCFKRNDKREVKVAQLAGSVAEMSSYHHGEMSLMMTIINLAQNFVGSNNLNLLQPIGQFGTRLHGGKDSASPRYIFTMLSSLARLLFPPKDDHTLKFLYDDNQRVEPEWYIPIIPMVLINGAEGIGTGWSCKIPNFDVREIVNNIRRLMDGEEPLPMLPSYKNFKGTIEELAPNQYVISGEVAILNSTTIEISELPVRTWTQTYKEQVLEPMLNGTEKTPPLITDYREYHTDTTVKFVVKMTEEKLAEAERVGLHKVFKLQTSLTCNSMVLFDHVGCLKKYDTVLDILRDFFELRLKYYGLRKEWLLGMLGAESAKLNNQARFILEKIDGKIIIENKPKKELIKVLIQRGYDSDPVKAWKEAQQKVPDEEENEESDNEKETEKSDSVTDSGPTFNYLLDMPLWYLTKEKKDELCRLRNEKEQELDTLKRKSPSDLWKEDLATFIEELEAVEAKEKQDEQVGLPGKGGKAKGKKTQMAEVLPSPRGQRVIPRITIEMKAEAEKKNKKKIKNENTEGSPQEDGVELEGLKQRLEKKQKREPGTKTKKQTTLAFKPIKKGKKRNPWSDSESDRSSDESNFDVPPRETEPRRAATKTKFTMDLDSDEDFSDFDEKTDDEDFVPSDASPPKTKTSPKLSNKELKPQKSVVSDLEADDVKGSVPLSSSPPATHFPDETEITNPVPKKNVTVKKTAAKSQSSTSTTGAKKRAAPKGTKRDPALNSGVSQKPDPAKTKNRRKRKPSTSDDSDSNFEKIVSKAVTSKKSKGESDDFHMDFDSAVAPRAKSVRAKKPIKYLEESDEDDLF
T1 sequence (P11388 whole entry, one chain of several): as the sequence (P11388 whole entry) above
Experimental for human SCLC NCI-H69 cells: Human small cell lung cancer (SCLC) OC—NYH (de Leij et al., 1985) and NCI-H69 cells (Cuttitta et al., 1981) were grown in RPMI-1640 medium supplemented with 10% fetal calf serum, 100 U/mL penicillin-streptomycin at 37° C. in a humidified atmosphere containing 5% CO2 in the dark.
Clonogenic assay was performed essentially as described in Jensen et al., 1993. […] Cells were then plated in 0.3% agar in 6 cm petri dishes with sheep red blood cells as feeder layer in triplicate, and were incubated under the same conditions as described above. Plates were counted after 3 weeks.

Take `Nc1nc(SCCc2ccccc2)c2nc[nH]c2n1` [NSC 35866, 2-amino-6-(phenylethylthio)-purine]: the “effect on level of topoisomerase II-DNA covalent complexes, in words” value in series [1] is reported as “no measurable effect”. In addition, the inhibition at 300 µM at topoisomerase II α [2] (300 μM, in the presence of DNA, read-out: inhibition of the total ATPase activity) was determined as 75%. Moreover, on topoisomerase II α [2] (10 mM DTT in the reaction buffer), the “inhibition of ATPase activity in the presence of DTT, in words” value is reported as “could inhibit ATPase activity”. Besides, the IC50 is 50 µM and 30 to 100 µM on topoisomerase II α [2] (in the presence of DNA (DNA-stimulated), read-out: IC50, inhibition of ATPase activity); 300 µM at topoisomerase II α [2] (without DNA, read-out: IC50, inhibition of DNA-independent ATPase activity). Besides, the “protection from etoposide-induced cytotoxicity, in words” value in the series on human SCLC NCI-H69 cells was “capable of protecting”. Further, the “retention of topoisomerase II on DNA beads after 2 M KCl wash, in words” value at topoisomerase II α [3] (30, 100, 300 and 1000 μM, with ATP) is listed as “traps human topoisomerase II α as a salt-stable complex on circular closed DNA in a dose-dependent manner”. Also, the “retention of topoisomerase II on DNA beads, in words” value on topoisomerase II α [3] (in the absence of ATP) was “only at 300 and 1000 μM”.
